Test system: Bovine cardiac myofibrils
Experiment: Dose-dependent myofibril ATPase modulation (calcium-buffered, pyruvate kinase and lactate dehydrogenase-coupled ATPase assay at pCa25)
Type: biochemical
Settings: concentration at which ATPase activity was 1.4-fold higher than the bottom of the dose curve, mean of a minimum of two independent tests
Description: In Vitro Model of Dose-Dependent Myofibril ATPase Modulation
Dose responses were measured using a calcium-buffered, pyruvate kinase and lactate dehydrogenase-coupled ATPase assay containing the following reagents (concentrations expressed are final assay concentrations): Potassium PIPES (12 mM), MgCl2 (2 mM), ATP (1 mM), DTT (1 mM), BSA (0.1 mg/ml), NADH (0.5 mM), PEP (1.5 mM), pyruvate kinase (4 U/ml), lactate dehydrogenase (8 U/ml), and antifoam (90 ppm). The pH was adjusted to 6.80 at 22° C. by addition of potassium hydroxide. Calcium levels were controlled by a buffering system containing 0.6 mM EGTA and varying concentrations of calcium, to achieve a free calcium concentration of 1×10^−4 M to 1×10^−8 M.
Bovine cardiac myofibrils were obtained by homogenizing the appropriate tissue in the presence of detergent. Such treatment removes membranes and majority of soluble cytoplasmic proteins but leaves intact cardiac sarcomeric acto-myosin apparatus. Concentrations of myofibrils were adjusted to achieve the necessary rate of ATP hydrolysis (typically 0.25-1.0 mg/ml).
Chemical entity dose responses were measured at the calcium concentration corresponding to 25% of maximal ATPase activity (pCa25), so a preliminary experiment was performed to test the response of the ATPase activity to free calcium concentrations in the range of 1×10^−4 M to 1×10^−8 M. Subsequently, the assay mixture was adjusted to the pCa25. Assays were performed by first preparing a dilution series of test chemical entity, each with an assay mixture containing potassium Pipes, MgCl2, BSA, DTT, pyruvate kinase, lactate dehydrogenase, myofibrils, antifoam, EGTA, CaCl2), and water. The assay was started by adding an equal volume of solution containing potassium Pipes, MgCl2, BSA, DTT, ATP, NADH, PEP, antifoam, and water. ATP hydrolysis was monitored by absorbance at 340 nm. The resulting dose response curve was fit by the 4 parameter equation y=Bottom+((Top−Bottom)/(1+((EC50/X)^Hill))). […] AC1.4 values reported in the table below are mean values based on a minimum of two independent tests.

SMILES | AC1.4 [µM]
Cc1[nH]c(S(=O)(=O)N[C@H]2C[C@H](n3cc(C(F)(F)F)cn3)C2)cc1C(=O)N1CC(C#N)C1 [Compound 55, 4-(3-cyanoazetidine-1-carbonyl)-5-methyl-N-((trans)-3-(4-(trifluoromethyl)-1H-pyrazol-1-yl)cyclobutyl)-1H-pyrrole-2-sulfonamide] | 5.7638
Cc1nn([C@H]2C[C@H](NS(=O)(=O)c3cc(C(=O)N4CC(C#N)C4)c(C)[nH]3)C2)cc1C(F)(F)F [Compound 56, 4-(3-Cyanoazetidine-1-carbonyl)-5-methyl-N-((trans)-3-(3-methyl-4-(trifluoromethyl)-1H-pyrazol-1-yl)cyclobutyl)-1H-pyrrole-2-sulfonamide] | 0.9674
Cc1[nH]c(S(=O)(=O)N[C@H]2C[C@H](c3cc(C(F)(F)F)ccn3)C2)cc1C(=O)N1CC(C#N)C1 [Compound 57, 4-(3-Cyanoazetidine-1-carbonyl)-5-methyl-N-((trans)-3-(4-(trifluoromethyl)pyridin-2-yl)cyclobutyl)-1H-pyrrole-2-sulfonamide] | 0.8572
Cc1[nH]c(S(=O)(=O)N[C@H]2C[C@H](c3cc(C(F)(F)F)ccn3)C2)cc1C(=O)N1CC(C)(C#N)C1 [Compound 58] | 1.0081
Cc1[nH]c(S(=O)(=O)N[C@]2(Cc3ccc(Cl)cc3)CCOC2)cc1C(=O)N1CC(F)(F)C1 [Compound 64, (R)-N-(3-(4-chlorobenzyl)tetrahydrofuran-3-yl)-4-(3,3-difluoroazetidine-1-carbonyl)-5-methyl-1H-pyrrole-2-sulfonamide] | 0.3886
Cc1[nH]c(S(=O)(=O)N[C@@H]2CCc3cc(Cl)ccc3C2)cc1C(=O)N1CC(C)(C#N)C1 [Compound 67, (R)-N-(6-chloro-1,2,3,4-tetrahydronaphthalen-2-yl)-4-(3-cyano-3-methylazetidine-1-carbonyl)-5-methyl-1H-pyrrole-2-sulfonamide] | 0.05605
Cc1[nH]c(S(=O)(=O)N[C@@H]2CCc3c([nH]c4ccccc34)C2)cc1C1=NCC(C)(C)O1 [Compound 68, (R)-4-(5,5-dimethyl-4,5-dihydrooxazol-2-yl)-5-methyl-N-(2,3,4,9-tetrahydro-1H-carbazol-2-yl)-1H-pyrrole-2-sulfonamide] | 0.1213
Cc1[nH]c(S(=O)(=O)N[C@@H]2Cc3ccc(Cl)cc3C2)cc1C(=O)N1CC(C)(C#N)C1 [Compound 69, (R)-N-(5-chloro-2,3-dihydro-1H-inden-2-yl)-4-(3-cyano-3-methylazetidine-1-carbonyl)-5-methyl-1H-pyrrole-2-sulfonamide] | 0.166

Continued, values first:

AC1.4 [µM] | SMILES
0.4184 | CNc1cc2c(cc1S(=O)(=O)N[C@H]1C[C@H](c3cc(C(F)(F)F)ccn3)C1)c(=O)[nH]c(=O)n2C [Compound 59]
2.062 | CNc1cc2c(cc1S(=O)(=O)N[C@H]1C[C@H](c3cc(C(F)(F)F)ccn3)C1)c(=O)[nH]c(=O)n2C [Compound 60, 1-Methyl-7-(methylamino)-2,4-dioxo-N-((trans)-3-(4-(trifluoromethyl)pyridin-2-yl)cyclobutyl)-1,2,3,4-tetrahydroquinazoline-6-sulfonamide]
0.3215 | CNc1cc2c(cc1S(=O)(=O)N[C@H]1C[C@H](n3cc(C(F)(F)F)c(C)n3)C1)c(=O)[nH]c(=O)n2C [Compound 61]
0.8691 | COc1cc2c(cc1S(=O)(=O)N[C@H]1C[C@H](n3cc(C(F)(F)F)c(C)n3)C1)c(=O)[nH]c(=O)n2C [Compound 62, 7-Methoxy-1-methyl-N-((trans)-3-(3-methyl-4-(trifluoromethyl)-1H-pyrazol-1-yl)cyclobutyl)-2,4-dioxo-1,2,3,4-tetrahydroquinazoline-6-sulfonamide]
1.1207 | Cc1cnc(-c2cc(S(=O)(=O)N[C@H]3C[C@H](n4cc(C(F)(F)F)c(C)n4)C3)[nH]c2C)o1 [Compound 66, 5-Methyl-N-((trans)-3-(3-methyl-4-(trifluoromethyl)-1H-pyrazol-1-yl)cyclobutyl)-4-(5-methyloxazol-2-yl)-1H-pyrrole-2-sulfonamide]

From patent publication US20220332708A1 (Cytokinetics, Inc., priority 2021, published 2022)
